# Experimental data reported in ChEMBL document CHEMBL1201862, “PubChem BioAssay data set” (2004).
# Calls of active or inactive are those of the source.
# Legend:
# Heat shock protein HSP90 = Heat shock protein HSP90 (Homo sapiens, UniProt P07900+P08238); test: tumor Hsp90 inhibitor potency, dose response (AID 712); assay type: functional
# Large T antigen = Large T antigen (Simian virus 40, UniProt P03070); assay type: functional, Betapolyomavirus macacae;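 also: Confirmatory-stage PubChem screen for compounds that inhibit SV40 T antigen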
# Large T antigen, sequence (P03070 whole entry): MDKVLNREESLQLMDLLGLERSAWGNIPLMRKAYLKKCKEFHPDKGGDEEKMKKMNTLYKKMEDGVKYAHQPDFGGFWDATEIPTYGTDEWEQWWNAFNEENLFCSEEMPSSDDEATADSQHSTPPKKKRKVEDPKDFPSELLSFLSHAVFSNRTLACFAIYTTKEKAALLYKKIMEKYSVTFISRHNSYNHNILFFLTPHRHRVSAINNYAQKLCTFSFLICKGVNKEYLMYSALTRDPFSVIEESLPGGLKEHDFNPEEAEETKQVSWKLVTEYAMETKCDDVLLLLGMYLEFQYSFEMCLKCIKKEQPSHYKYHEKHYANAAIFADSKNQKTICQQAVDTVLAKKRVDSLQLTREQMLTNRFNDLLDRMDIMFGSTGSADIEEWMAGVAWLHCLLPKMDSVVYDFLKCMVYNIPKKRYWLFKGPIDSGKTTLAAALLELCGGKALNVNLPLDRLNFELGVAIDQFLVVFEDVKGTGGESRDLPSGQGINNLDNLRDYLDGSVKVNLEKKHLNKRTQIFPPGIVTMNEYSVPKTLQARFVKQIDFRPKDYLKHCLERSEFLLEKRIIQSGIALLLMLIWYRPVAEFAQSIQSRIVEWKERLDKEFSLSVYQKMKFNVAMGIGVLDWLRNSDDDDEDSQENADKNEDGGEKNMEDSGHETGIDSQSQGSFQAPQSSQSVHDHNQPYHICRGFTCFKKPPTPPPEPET
# [1] = target: T1, Replicative DNA helicase DnaB (Mycobacterium tuberculosis, UniProt P9WMR3); test: DnaB intein splicing inhibitors, dose response, biochemical, cell-free fluorescence (AID 449749); assay type: functional
# T1 sequence (P9WMR3 whole entry): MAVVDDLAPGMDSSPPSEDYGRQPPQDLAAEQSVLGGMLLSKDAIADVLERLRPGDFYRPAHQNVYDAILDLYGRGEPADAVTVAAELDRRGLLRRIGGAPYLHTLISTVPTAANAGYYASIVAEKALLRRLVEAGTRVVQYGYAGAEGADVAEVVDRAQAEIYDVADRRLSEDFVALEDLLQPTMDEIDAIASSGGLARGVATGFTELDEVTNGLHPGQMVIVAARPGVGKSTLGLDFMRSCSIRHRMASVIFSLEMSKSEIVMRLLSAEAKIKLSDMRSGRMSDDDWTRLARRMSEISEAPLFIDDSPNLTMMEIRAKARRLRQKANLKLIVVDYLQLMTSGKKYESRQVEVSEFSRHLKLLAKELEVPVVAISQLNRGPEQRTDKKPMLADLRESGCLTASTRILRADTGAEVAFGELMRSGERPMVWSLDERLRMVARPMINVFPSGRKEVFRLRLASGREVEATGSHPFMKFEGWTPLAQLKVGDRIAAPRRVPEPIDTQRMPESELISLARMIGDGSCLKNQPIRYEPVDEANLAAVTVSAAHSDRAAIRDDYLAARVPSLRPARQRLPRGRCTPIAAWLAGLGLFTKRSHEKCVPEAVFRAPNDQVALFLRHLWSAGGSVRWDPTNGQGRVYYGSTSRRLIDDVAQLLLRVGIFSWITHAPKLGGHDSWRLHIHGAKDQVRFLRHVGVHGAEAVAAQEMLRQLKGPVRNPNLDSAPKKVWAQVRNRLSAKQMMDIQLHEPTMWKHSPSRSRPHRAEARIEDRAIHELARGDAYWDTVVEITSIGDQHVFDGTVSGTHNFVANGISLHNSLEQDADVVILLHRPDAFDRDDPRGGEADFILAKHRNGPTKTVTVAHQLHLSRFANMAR
# Protein RecA = target: T2, Protein RecA (Mycobacterium tuberculosis, UniProt P9WHJ3); test: Fluorescence Cell-Free Homogeneous Dose Retest to Identify Inhibitors of RecA-Intein Splicing Activity. [Related pubchem assays (depositor defined):AID2097, AID2223, AID489010, AID492950]; assay type: functional
# T2 sequence (P9WHJ3 whole entry): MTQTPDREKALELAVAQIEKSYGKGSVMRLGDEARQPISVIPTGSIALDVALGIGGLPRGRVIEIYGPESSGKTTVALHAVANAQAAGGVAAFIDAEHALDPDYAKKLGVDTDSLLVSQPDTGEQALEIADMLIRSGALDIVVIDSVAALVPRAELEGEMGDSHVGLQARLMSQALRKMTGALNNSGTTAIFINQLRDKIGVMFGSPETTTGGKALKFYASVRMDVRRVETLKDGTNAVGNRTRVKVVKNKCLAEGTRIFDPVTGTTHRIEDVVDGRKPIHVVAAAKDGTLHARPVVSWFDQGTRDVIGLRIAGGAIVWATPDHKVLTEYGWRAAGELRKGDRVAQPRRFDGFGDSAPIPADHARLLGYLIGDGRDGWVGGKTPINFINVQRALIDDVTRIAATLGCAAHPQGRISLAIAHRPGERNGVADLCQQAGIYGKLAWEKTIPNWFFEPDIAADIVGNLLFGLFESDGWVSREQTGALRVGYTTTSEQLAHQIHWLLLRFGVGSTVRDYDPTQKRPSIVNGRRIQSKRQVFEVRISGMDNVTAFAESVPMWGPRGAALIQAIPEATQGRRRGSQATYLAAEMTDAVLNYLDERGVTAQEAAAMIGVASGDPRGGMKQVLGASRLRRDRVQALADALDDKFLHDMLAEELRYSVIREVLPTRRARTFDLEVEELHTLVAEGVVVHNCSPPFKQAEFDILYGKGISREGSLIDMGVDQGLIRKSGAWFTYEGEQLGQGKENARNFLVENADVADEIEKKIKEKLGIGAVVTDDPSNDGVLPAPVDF
# Protein Tat = target: T3, Protein Tat (Human immunodeficiency virus type 1 group M subtype B (isolate HXB2)(HIV-1), UniProt P04608); assay type: functional;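 also: tat binding to TAR RNA read out by fluorescence polarization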
# T3 sequence (P04608 whole entry): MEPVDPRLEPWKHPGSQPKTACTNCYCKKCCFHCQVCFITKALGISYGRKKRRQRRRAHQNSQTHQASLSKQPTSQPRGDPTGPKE
# [2] = THP-1 cell cytotoxicity, dose response, cytotoxicity control for Vif-APOBEC3G degradation inhibitor project, THP-1 cells (AID 1117359); assay type: functional; conditions: Human immunodeficiency virus 1, THP-1
# [3] = target: E3 ubiquitin-protein ligase Mdm2 (Homo sapiens, UniProt Q00987); test: enhancers of MDM2-luciferase reporter signal, concentration-effect titration, project on inhibitors of MDM2 ubiquitin ligase, cellular assay, luminescent readout, 384-well plate format (AID 1394); assay type: functional;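 also: MDM2 E3 inhibitors raise luminescence so EC50 is for signal enhancement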
# E3 ubiquitin-protein ligase Mdm2, sequence (Q00987 whole entry): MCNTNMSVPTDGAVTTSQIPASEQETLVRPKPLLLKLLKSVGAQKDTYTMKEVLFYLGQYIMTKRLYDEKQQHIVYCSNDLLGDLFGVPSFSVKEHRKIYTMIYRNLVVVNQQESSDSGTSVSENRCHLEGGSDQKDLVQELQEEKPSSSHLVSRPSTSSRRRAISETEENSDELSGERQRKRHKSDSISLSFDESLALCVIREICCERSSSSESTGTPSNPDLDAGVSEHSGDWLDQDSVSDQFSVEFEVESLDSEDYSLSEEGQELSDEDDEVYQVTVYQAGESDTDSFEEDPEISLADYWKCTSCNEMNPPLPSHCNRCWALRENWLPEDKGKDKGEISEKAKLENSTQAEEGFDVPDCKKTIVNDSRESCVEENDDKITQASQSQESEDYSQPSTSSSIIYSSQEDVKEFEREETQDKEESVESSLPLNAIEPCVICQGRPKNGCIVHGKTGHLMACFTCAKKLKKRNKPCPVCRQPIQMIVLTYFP
# [4] = target: T4, Microphthalmia-associated transcription factor (Homo sapiens, UniProt O75030); test: TRPM1 promoter luciferase signal decrease, dose response, MITF inhibitor project, cell-based, SK-MEL-5, cherry-picked, set 3 (AID 493073); assay type: functional
# T4 sequence (O75030 whole entry): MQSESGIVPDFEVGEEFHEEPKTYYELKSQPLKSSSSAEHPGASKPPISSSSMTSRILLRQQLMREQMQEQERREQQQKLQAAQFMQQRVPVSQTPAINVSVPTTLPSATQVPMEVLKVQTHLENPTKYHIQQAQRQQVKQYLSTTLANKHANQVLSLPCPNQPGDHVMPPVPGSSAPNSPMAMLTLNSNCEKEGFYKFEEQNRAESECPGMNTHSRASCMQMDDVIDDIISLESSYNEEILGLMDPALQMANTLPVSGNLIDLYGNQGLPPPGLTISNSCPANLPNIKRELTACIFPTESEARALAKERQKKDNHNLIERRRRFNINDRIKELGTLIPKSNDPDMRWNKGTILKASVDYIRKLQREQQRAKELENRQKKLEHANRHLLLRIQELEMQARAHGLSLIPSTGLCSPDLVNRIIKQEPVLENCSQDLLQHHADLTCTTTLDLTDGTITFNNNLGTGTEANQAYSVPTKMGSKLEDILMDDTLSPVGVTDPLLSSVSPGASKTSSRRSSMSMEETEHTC
# [5] = NIH-3T3 fibroblast cytotoxicity, dose response, cytotoxicity control, cell-based, fluorescence, Alamar Blue, secondary assay (AID 2327); assay type: functional;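 also: NIH-3T3 mouse fibroblasts cultured with fluconazole at 8 µg/mL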
# [6] = C. albicans growth with fluconazole, confirmation, fluorescence, retest (AID 2467); assay type: functional, cell-based
# [7] = target: T5, Mannose-6-phosphate isomerase (Homo sapiens, UniProt P34949); test: human PMI inhibitors, high substrate, primary screen, biochemical, fluorescence intensity, high mannose 6-phosphate (AID 1220)
# T5 sequence (P34949 whole entry): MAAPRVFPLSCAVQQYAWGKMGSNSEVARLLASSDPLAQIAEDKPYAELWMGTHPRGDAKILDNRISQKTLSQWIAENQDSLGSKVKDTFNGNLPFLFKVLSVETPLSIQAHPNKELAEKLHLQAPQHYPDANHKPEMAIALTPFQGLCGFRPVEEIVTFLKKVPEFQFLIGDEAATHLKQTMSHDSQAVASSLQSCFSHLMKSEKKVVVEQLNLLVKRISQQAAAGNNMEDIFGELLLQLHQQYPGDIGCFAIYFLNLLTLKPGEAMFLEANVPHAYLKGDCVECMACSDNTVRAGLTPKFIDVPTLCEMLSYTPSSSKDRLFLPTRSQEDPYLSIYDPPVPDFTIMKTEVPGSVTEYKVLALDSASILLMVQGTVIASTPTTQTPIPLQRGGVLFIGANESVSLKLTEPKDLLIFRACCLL
# [8] = target: DNA dC->dU-editing enzyme APOBEC-3G (Homo sapiens, UniProt Q9HC16); test: Dose Response confirmation of small molecule APOBEC3G DNA Deaminase Inhibitors via a fluorescence-based single-stranded DNA deaminase assay. [Related pubchem assays (depositor defined):AID493012, AID493028]; assay type: functional
# DNA dC->dU-editing enzyme APOBEC-3G, sequence (Q9HC16 whole entry): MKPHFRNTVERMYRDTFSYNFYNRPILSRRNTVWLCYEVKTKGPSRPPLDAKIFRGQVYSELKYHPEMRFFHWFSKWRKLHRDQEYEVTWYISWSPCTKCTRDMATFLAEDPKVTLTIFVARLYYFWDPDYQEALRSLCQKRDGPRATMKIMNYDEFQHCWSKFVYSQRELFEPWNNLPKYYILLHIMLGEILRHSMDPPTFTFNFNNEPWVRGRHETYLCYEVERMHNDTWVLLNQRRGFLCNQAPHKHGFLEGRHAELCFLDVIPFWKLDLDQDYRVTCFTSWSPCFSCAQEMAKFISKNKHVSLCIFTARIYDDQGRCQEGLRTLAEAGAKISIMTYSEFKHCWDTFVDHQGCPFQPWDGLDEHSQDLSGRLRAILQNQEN
# [9] = target: T5, Mannose-6-phosphate isomerase; test: inhibitors of human PMI, primary screen, biochemical, fluorescence intensity, coupled assay (AID 1209)
# [10] = target: T6, Calpain-2 catalytic subunit (Sus scrofa, UniProt P43367); test: pig calpain II inhibitor potency, dose response, biochemical, fluorogenic peptide substrate (AID 1420); assay type: functional
# T6 sequence (P43367 whole entry): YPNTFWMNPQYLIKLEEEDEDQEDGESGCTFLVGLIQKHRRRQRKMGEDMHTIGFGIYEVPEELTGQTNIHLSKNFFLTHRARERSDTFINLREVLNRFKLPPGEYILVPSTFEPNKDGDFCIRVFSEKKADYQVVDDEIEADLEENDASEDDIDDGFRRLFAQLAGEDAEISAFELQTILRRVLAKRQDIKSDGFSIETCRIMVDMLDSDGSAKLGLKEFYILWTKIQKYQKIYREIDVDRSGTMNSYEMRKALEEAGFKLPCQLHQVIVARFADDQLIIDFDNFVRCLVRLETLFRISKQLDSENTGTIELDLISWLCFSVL
# [11] = Vero cell cytotoxicity, dose response, cytotoxicity control for Vif-APOBEC3G degradation inhibitor project, Vero cells (AID 1117358); assay type: functional; conditions: Human immunodeficiency virus 1, Vero
# NS3 = NS3 (Hepatitis C virus, UniProt A3EZJ3); test: PubChem AID 2173; parameters: species or system Hepacivirus hominis
# NS3, sequence (A3EZJ3 whole entry): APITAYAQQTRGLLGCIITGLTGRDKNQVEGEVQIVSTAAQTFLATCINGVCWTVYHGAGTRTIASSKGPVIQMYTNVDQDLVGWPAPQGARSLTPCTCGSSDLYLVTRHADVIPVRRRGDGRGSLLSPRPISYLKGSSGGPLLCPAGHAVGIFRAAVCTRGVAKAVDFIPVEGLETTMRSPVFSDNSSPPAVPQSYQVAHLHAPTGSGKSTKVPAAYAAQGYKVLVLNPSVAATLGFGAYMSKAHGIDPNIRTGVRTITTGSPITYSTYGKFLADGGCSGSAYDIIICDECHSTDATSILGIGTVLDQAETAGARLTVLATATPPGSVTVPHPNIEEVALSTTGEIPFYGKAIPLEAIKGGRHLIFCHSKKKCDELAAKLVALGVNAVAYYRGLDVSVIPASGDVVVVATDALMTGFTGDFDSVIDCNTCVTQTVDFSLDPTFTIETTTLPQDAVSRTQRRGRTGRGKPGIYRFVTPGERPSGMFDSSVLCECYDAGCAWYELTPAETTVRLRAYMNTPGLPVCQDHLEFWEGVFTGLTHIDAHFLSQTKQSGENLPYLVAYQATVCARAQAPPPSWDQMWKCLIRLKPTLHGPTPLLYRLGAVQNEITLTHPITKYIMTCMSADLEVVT
# [12] = target: Solute carrier family 12 member 2/member 5 (Homo sapiens, UniProt P55011+Q9H2X9); test: KCC2 and NKCC1 inhibition by rubidium flux, cell-based, NKCC1 counter-screen (AID 1734); assay type: functional, HEK293
# Genome polyprotein = Genome polyprotein (Hepatitis C virus, UniProt Q2Q167); test: HCV core protein dimerization inhibitors, dose response, biochemical, TR-FRET (AID 2159); parameters: species or system Hepacivirus hominis;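 also: blocks dimerization of HCV core protein measured by TR-FRET between tagged core106 pairs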
# Genome polyprotein, sequence (Q2Q167 whole entry): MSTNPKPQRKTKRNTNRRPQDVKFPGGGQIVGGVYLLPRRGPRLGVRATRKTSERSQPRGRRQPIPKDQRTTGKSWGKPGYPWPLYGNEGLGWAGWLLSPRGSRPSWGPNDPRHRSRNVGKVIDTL
# Estrogen receptor = target: T7, Estrogen receptor (Homo sapiens, UniProt P03372);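 also: potency for inhibiting coactivator peptide recruitment to the receptor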
# T7 sequence (P03372 whole entry): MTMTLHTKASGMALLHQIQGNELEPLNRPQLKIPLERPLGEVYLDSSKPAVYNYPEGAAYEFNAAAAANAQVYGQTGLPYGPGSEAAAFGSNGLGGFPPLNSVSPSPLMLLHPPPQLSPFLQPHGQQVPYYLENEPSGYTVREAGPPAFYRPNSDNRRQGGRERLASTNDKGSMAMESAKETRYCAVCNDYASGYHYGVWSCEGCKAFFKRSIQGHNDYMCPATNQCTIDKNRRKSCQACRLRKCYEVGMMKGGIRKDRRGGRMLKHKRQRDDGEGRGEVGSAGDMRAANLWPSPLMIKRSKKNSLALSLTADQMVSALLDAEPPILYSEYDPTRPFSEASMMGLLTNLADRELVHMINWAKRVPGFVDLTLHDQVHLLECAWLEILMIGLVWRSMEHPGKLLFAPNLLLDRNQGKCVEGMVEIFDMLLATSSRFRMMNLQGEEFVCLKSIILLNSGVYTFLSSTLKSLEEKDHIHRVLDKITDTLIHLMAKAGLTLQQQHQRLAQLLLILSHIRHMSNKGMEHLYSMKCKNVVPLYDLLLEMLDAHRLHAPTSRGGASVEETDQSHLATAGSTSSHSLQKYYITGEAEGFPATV
# [13] = target: Dual specificity tyrosine-phosphorylation-regulated kinase 1A (Rattus norvegicus, UniProt Q63470); assay type: biochemical, Homo sapiens
# [14] = target: T8, Carboxy-terminal domain RNA polymerase II polypeptide A small phosphatase 1 (Homo sapiens, UniProt Q9GZU7); test: inhibitors of CTDSP1, concentration-response testing, biochemical assay, absorbance-based, actives from ultra-high-throughput screening (AID 540297); assay type: functional
# T8 sequence (Q9GZU7 whole entry): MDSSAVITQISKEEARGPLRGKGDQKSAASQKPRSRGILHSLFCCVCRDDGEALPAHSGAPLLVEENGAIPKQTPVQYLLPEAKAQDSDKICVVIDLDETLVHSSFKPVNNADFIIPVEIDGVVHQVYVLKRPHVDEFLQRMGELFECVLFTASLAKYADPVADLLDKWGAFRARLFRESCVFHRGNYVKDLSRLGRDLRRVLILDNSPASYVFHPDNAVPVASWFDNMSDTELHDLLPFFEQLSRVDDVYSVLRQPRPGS
structure (smiles),measurement,setting,value
Oc1ccc(/N=C/c2ccc(O)c(O)c2)cc1,IC50,Heat shock protein HSP90,20.6061 µM
same,IC50,Large T antigen,9.16 µM (active)
same,AC50,[1],10.5 µM (inconclusive)
same,EC50,Protein RecA,> 380 µM (inconclusive)
same,IC50,Protein Tat,15 µM (inconclusive)
same,CC50,[2],22.2 µM (active)
CC(C)CC(=O)/C=C/n1c(=S)oc2ccccc21,EC50,[3],1.2 µM (active)
same,AC50,[4],10.5 µM (active)
O=[N+]([O-])c1ccc2c(c1)nc(S)n2-c1ccccc1,EC50,[5],> 150 µM (inactive)
same,EC50,[6],2.85 µM (active)
same,IC50,[7],39.6 µM (active)
same,IC50,[8],9.42 µM (active)
CCOc1cc(CNc2ccc(O)cc2)ccc1OCc1ccc(Cl)cc1Cl,IC50,[9],> 50 µM (not active)
same,IC50,[10],7.31 µM (not active)
same,AC50,[1],> 380 µM (inconclusive)
same,EC50,Protein RecA,331 µM (active)
same,IC50,Protein Tat,34 µM (inconclusive)
same,CC50,[2],13.9 µM (active)
same,CC50,[11],> 40 µM (active)
CCOc1ccc(N2C(=O)C3Sc4nc(O)sc4C(/C=C/c4ccccc4)C3C2=O)cc1 (stereo not given),IC50,NS3,15.4 µM (not active)
same,IC50,[12],0.3 µM (active)
CCC1(CC)NC(=O)N(CC(=O)Nc2sc3c(c2C(N)=O)CCC3)C1=O,IC50,Genome polyprotein,> 49.8 µM (not active)
same,IC50,Estrogen receptor,< 1.56 µM (active)
same,AC50,[13],32.9 µM (active)
same,IC50,[14],3.98 µM (active)
